Data reported in ChEMBL document CHEMBL4270599, “Synthesis of a 3'-C-ethynyl-β-d-ribofuranose purine nucleoside library: Discovery of C7-deazapurine analogs as potent antiproliferative nucleosides” (Eur J Med Chem, 2018).

Assays:
Assay type in all cases: functional
[1] = tested on: SN12C; assay: Growth inhibition of human SN12C cells assessed as cell growth at 10^-5 M incubated for 48 hrs by sulforhodamine B assay relative to control; details: read-out: Activity
[2] = tested on: HL-60(TB); assay: Cytotoxicity against human HL-60(TB) cells after 48 hrs by SRB assay; details: HL-60, 48 h
[3] = tested on: Hs-578T; assay: Growth inhibition of human Hs 578T cells assessed as cell growth at 10^-5 M incubated for 48 hrs by sulforhodamine B assay relative to control; details: read-out: Activity
[4] = tested on: NCI-H322M; assay: Growth inhibition of human NCI-H322M cells assessed as cell growth at 10^-8 M incubated for 48 hrs by sulforhodamine B assay relative to control; details: read-out: Activity
[5] = tested on: NCI-H226; assay: Growth inhibition of human NCI-H226 cells assessed as cell growth at 10^-7 M incubated for 48 hrs by sulforhodamine B assay relative to control; details: NCI-H226, 48 h, read-out: Activity
[6] = tested on: K562; assay: Growth inhibition of human K562 cells assessed as cell growth at 10^-5 M incubated for 48 hrs by sulforhodamine B assay relative to control; details: K562, 48 h, read-out: Activity
[7] = tested on: OVCAR-3; assay: Growth inhibition of human OVCAR3 cells assessed as cell growth at 10^-8 M incubated for 48 hrs by sulforhodamine B assay relative to control; details: OVCAR-3, 48 h, read-out: Activity
[8] = tested on: MOLT-4; assay: Growth inhibition of human MOLT4 cells assessed as cell growth at 10^-7 M incubated for 48 hrs by sulforhodamine B assay relative to control; details: MOLT-4, 48 h, read-out: Activity
[9] = tested on: HT-29; assay: Growth inhibition of human HT-29 cells assessed as cell growth at 10^-4 M incubated for 48 hrs by sulforhodamine B assay relative to control; details: HT-29, 48 h, read-out: Activity
[10] = tested on: A549; assay: Growth inhibition of human A549/ATCC cells assessed as cell growth at 10^-8 M incubated for 48 hrs by sulforhodamine B assay relative to control; details: A549, 48 h, read-out: Activity
[11] = tested on: HCT-116; assay: Growth inhibition of human HCT116 cells assessed as cell growth at 10^-4 M incubated for 48 hrs by sulforhodamine B assay relative to control; details: HCT-116, 48 h, read-out: Activity
[12] = tested on: UACC-257; assay: Cytotoxicity against human UACC257 cells after 48 hrs by SRB assay; details: UACC-257, 48 h
[13] = tested on: MOLT-4; assay: Growth inhibition of human MOLT4 cells assessed as cell growth at 10^-8 M incubated for 48 hrs by sulforhodamine B assay relative to control; details: MOLT-4, 48 h, read-out: Activity
[14] = tested on: NCI/ADR-RES; assay: Growth inhibition of human NCI/ADR-RES cells assessed as cell growth at 10^-5 M incubated for 48 hrs by sulforhodamine B assay relative to control; details: read-out: Activity
[15] = tested on: SK-MEL-5; assay: Cytotoxicity against human SK-MEL-5 cells after 48 hrs by SRB assay; details: SK-MEL-5, 48 h
[16] = tested on: RPMI-8226; assay: Growth inhibition of human RPMI8226 cells assessed as cell growth at 10^-8 M incubated for 48 hrs by sulforhodamine B assay relative to control; details: RPMI-8226, 48 h, read-out: Activity
[17] = tested on: HCT-116; assay: Growth inhibition of human HCT116 cells assessed as cell growth at 10^-8 M incubated for 48 hrs by sulforhodamine B assay relative to control; details: HCT-116, 48 h, read-out: Activity
[18] = tested on: NCI-H522; assay: Cytotoxicity against human NCI-H522 cells after 48 hrs by SRB assay; details: NCI-H522, 48 h
[19] = tested on: KM12; assay: Growth inhibition of human KM12 cells assessed as cell growth at 10^-5 M incubated for 48 hrs by sulforhodamine B assay relative to control; details: KM12, 48 h, read-out: Activity
[20] = tested on: HOP-92; assay: Growth inhibition of human HOP92 cells assessed as cell growth at 10^-8 M incubated for 48 hrs by sulforhodamine B assay relative to control; details: HOP-92, 48 h, read-out: Activity
[21] = tested on: OVCAR-3; assay: Growth inhibition of human OVCAR3 cells assessed as cell growth at 10^-7 M incubated for 48 hrs by sulforhodamine B assay relative to control; details: OVCAR-3, 48 h, read-out: Activity
[22] = tested on: OVCAR-3; assay: Cytotoxicity against human OVCAR3 cells after 48 hrs by SRB assay; details: OVCAR-3, 48 h
[23] = tested on: UO-31; assay: Growth inhibition of human UO31 cells assessed as cell growth at 10^-7 M incubated for 48 hrs by sulforhodamine B assay relative to control; details: UO-31, 48 h, read-out: Activity
[24] = tested on: SN12C; assay: Growth inhibition of human SN12C cells assessed as cell growth at 10^-8 M incubated for 48 hrs by sulforhodamine B assay relative to control; details: read-out: Activity
[25] = tested on: IGROV-1; assay: Cytotoxicity against human IGROV1 cells after 48 hrs by SRB assay; details: IGROV-1, 48 h
[26] = tested on: NCI-H322M; assay: Growth inhibition of human NCI-H322M cells assessed as cell growth at 10^-7 M incubated for 48 hrs by sulforhodamine B assay relative to control; details: read-out: Activity
[27] = tested on: NCI/ADR-RES; assay: Growth inhibition of human NCI/ADR-RES cells assessed as cell growth at 10^-8 M incubated for 48 hrs by sulforhodamine B assay relative to control; details: read-out: Activity
[28] = tested on: IGROV-1; assay: Growth inhibition of human IGROV1 cells assessed as cell growth at 10^-8 M incubated for 48 hrs by sulforhodamine B assay relative to control; details: IGROV-1, 48 h, read-out: Activity
[29] = tested on: OVCAR-8; assay: Growth inhibition of human OVCAR8 cells assessed as cell growth at 10^-6 M incubated for 48 hrs by sulforhodamine B assay relative to control; details: OVCAR-8, 48 h, read-out: Activity
[30] = tested on: 786-0; assay: Cytotoxicity against human 786-0 cells after 48 hrs by SRB assay; details: 786-0, 48 h
[31] = tested on: OVCAR-8; assay: Cytotoxicity against human OVCAR8 cells after 48 hrs by SRB assay; details: OVCAR-8, 48 h
[32] = tested on: SF-295; assay: Cytotoxicity against human SF295 cells after 48 hrs by SRB assay; details: SF-295, 48 h
[33] = read-out: pLC50 (the source's name) (converted)
[34] = read-out: LC50 (the source's name)

## C#C[C@@]1(O)[C@@H](CO)O[C@@H](n2cc(Br)c3c(N)ncnc32)[C@@H]1O
[1]
  growth at 10 µM: 1 to 3%
[2]; read-out: GI50
  GI50: 21.8 to 71.6 nM
[2]; read-out: TGI
  TGI: 75.7 to 313 nM
[2]; [33]
  CC50: 5250 nM
[3]
  growth at 10 µM: 3 to 9%
[4]
  growth at 0.01 µM: 91 to 95%
[5]
  growth at 0.1 µM: 81 to 98%
[6]
  growth at 10 µM: 6 to 7%
[7]
  growth at 0.01 µM: 99 to 101%
[8]
  growth at 0.1 µM: 44 to 66%
[9]
  growth at 100 µM: 1 to 2%
[10]
  growth at 0.01 µM: 94 to 99%
[11]
  growth at 100 µM: 3 to 5%
[12]; read-out: GI50
  GI50: 2820 to 5900 nM
[12]; [34]
  CC50: > 100000 nM
[12]; read-out: TGI
  TGI: 49200 to 77000 nM
[13]
  growth at 0.01 µM: 86 to 95%
[14]
  growth at 10 µM: -9%
[15]; read-out: GI50
  GI50: 47.8 to 239 nM
[15]; [34]
  CC50: 6240 to 100000 nM
[15]; read-out: TGI
  TGI: 522 to 7180 nM
[16]
  growth at 0.01 µM: 95 to 101%
[17]
  growth at 0.01 µM: 83%
[18]; read-out: GI50
  GI50: 61.3 to 156 nM
[18]; read-out: TGI
  TGI: 332 to 593 nM
[18]; [33]
  CC50: > 100000 nM
[19]
  growth at 10 µM: 7 to 12%
[20]
  growth at 0.01 µM: 90 to 94%
[21]
  growth at 0.1 µM: 62 to 72%
[22]; read-out: GI50
  GI50: 184 to 252 nM
[22]; [34]
  CC50: > 100000 nM
[22]; read-out: TGI
  TGI: 3010 to 4710 nM
[23]
  growth at 0.1 µM: 55 to 57%
[24]
  growth at 0.01 µM: 76 to 96%
[25]; read-out: GI50
  GI50: 27.8 to 69.9 nM
[25]; read-out: TGI
  TGI: 485 nM
[25]; [33]
  CC50: > 100000 nM
[25]; read-out: pTGI (converted)
  TGI: 490 nM
[26]
  growth at 0.1 µM: 73 to 76%
[27]
  growth at 0.01 µM: 80 to 90%
[28]
  growth at 0.01 µM: 81 to 88%
[29]
  growth at 1 µM: 1 to 4%
[30]; read-out: GI50
  GI50: 164 to 351 nM
[30]; read-out: TGI
  TGI: 593 to 1630 nM
[31]; read-out: GI50
  GI50: 13.5 to 62.5 nM
[31]; [34]
  CC50: > 100000 nM
[31]; read-out: TGI
  TGI: 1120 nM
[31]; read-out: pTGI (converted)
  TGI: 1120 nM
[32]; read-out: GI50
  GI50: 189 to 466 nM
[32]; [34]
  CC50: > 100000 nM
[32]; read-out: TGI
  TGI: 4120 to 13700 nM
